# Experiments:
# [1] = tested on: human lung cancer cells (H358); test: Lung cancer spheroid cell death test; type: cell-based; conditions: 24 hour exposure to increasing doses; spheroids
# Procedure: (§1) The respective cells were individually cultured in a growth medium prepared using RPMI-1640 medium containing 11.1 mM D-glucose with 10% fetal bovine serum, 10 mM HEPES, 2 mM L-glutamine, 1 mM sodium pyruvate, 0.05 mM 2-mercaptoethanol, and Antibiotic-Antimycotic. These cells were maintained in T75 tissue culture flasks in a humidified incubator at 37° C. and 5% CO2. The media were changed on a third day after cell plating, and the cells were passaged on day 5 by trypsinization.
# (§2) Custom-made micromolds with 100 μm diameter wells were loaded with the cells (U.S. Pat. No. 8,735,154, incorporated by reference herein). The media were changed every day by partial replacement. Cell aggregates were allowed to form in the micromolds for 72 hours and then were transferred to a 100 mm non-treated tissue culture dishes for 3 additional days. The spheroids were passed through 70 μm and 100 μm cell strainers (#3431751 and #43152, Corning, Tewksbury, Mass.) and maintained in HEPES Balanced Salt Solution comprised of: 20 mM HEPES, 114 mMNaCl, 4.7 mM KCl, 1.2 mM KH2PO4, 1.16 mM MgSO4, 2.5 mM CaCl2, 25.5 mM NaHCO3 and 0.2% bovine serum albumin (fatty acid free), pH 7.2.
# The lymphomas treatment methods used were identical to those described in Example 2 relative to the pediatric leukemia cells, whereas the lung cancer treatment method was the same as described in Example 1.
# [2] = tested on: human prostate cancer cells (22rv1); test: Prostate cancer spheroid cell death test; type: cell-based; conditions: 24 hour exposure to increasing doses; spheroids
# Procedure: as §1, §2
# (§3) The cells were treated and tested as set forth in Example 1.
# [3] = tested on: human ovarian cancer cells (A1847); test: Ovarian cancer spheroid cell death test; type: cell-based; conditions: 24 hour exposure to increasing doses; spheroids
# Procedure: as §1, §2, §3
# [4] = tested on: ovarian cancer cells; conditions: low doses of doxorubicin alone (up to 0.158, unit not given)
# Procedure: In this test, the synergism of GZ17-6.02 with doxorubicin (a common chemotherapy drug) was tested on ovarian cancer cells. In this test, increasing doses of doxorubicin were administered to ovarian cancer spheroids and cell deaths were measured, as described in Example 1. The protocol involved testing doxorubicin alone at various dosages (FIG. 8, doxorubicin alone—closed circles), with comparative tests using the various dosages of doxorubicin in combination with either 0.2 mg/mL (FIG. 8 open circles) or 0.4 mg/mL (FIG. 8 closed triangles) GZ17-6.02. Additionally, the induced cell death results from use of 0.2 mg/mL GZ17-6.02 alone (FIG. 8, line A) and 0.4 mg/mL GZ17-6.02 alone (FIG. 8, line B) were determined.
Structure (SMILES),cell death (number of live cells) [1],cell death (number of live cells) [2],cell death (number of live cells) [3],"cell death, doxorubicin alone [4]"
COc1cccc(C=O)c1O [O -vanillin],demonstrated anticancer effects,demonstrated anticancer effects,demonstrated anticancer effects,–
COc1cccc2c1C(=O)c1c(O)c3c(c(O)c1C2=O)C[C@@](O)(C(=O)CO)C[C@@H]3O[C@H]1C[C@H](N)[C@H](O)[C@H](C)O1 [doxorubicin],–,–,–,ineffective
COc1ccc2c3c([nH]c2c1)C(C)=NCC3 [harmaline],demonstrated anticancer effects,demonstrated anticancer effects,demonstrated anticancer effects,–
CC1=NCCc2c1[nH]c1cc(O)ccc21.Cl [harmalol hydrochloride],demonstrated anticancer effects,demonstrated anticancer effects,demonstrated anticancer effects,–
Cc1nccc2c1[nH]c1cc(O)ccc12.Cl [harmole hydrochloride],demonstrated anticancer effects,demonstrated anticancer effects,demonstrated anticancer effects,–
COc1ccc(C(=O)O)cc1O [isovanillic acid],demonstrated anticancer effects,demonstrated anticancer effects,demonstrated anticancer effects,–
COc1ccc(CO)cc1O [isovanillyl alcohol],demonstrated anticancer effects,demonstrated anticancer effects,demonstrated anticancer effects,–
COc1ccc2c3c([nH]c2c1)[C@@H](C)NCC3 [tetrahydro-harmine],demonstrated anticancer effects,demonstrated anticancer effects,demonstrated anticancer effects,–
COc1cc(C=O)ccc1O [vanillin],demonstrated anticancer effects,demonstrated anticancer effects,demonstrated anticancer effects,–
